Measurements reported in PMC4822204 (Biomolecular Detection and Quantification, 2015).

Key:
Assay type in all cases: biochemical
[1] = test system: alkaline phosphatase from bovine intestine; assay: Reversibility test by rapid dilution of the enzyme-inhibitor complex
[2] = target: T1, alkaline phosphatase from bovine intestine (Bos taurus, UniProt P19111); assay: AP fluorometric assay; details: for IC50: 60 min; for IC50 / apparent AP Vmax / Km / Vmax: ± 95% confidence interval; for apparent AP Vmax: substrate DiFMUP; for Hill coefficient / kcat / Km / Vmax: hydrolysis of DiFMUP by AP
Target sequence in this assay (P19111 20-506 limits assumed): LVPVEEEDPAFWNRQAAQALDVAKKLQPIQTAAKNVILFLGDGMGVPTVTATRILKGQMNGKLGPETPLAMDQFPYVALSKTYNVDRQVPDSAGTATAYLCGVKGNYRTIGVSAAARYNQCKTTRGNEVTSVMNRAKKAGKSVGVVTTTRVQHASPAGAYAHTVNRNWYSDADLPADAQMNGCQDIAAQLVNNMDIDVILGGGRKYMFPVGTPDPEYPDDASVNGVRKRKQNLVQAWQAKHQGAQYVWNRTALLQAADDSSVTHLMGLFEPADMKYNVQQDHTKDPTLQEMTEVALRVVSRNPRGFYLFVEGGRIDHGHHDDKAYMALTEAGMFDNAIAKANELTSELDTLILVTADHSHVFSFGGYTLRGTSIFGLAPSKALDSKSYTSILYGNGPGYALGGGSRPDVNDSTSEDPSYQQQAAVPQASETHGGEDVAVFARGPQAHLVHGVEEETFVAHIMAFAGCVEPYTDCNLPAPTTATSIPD

[3] = target: T1, alkaline phosphatase from bovine intestine; assay: AP colorimetric assay; details: detergent at two concentrations above its critical micelle concentration
Target sequence in this assay (P19111 20-533): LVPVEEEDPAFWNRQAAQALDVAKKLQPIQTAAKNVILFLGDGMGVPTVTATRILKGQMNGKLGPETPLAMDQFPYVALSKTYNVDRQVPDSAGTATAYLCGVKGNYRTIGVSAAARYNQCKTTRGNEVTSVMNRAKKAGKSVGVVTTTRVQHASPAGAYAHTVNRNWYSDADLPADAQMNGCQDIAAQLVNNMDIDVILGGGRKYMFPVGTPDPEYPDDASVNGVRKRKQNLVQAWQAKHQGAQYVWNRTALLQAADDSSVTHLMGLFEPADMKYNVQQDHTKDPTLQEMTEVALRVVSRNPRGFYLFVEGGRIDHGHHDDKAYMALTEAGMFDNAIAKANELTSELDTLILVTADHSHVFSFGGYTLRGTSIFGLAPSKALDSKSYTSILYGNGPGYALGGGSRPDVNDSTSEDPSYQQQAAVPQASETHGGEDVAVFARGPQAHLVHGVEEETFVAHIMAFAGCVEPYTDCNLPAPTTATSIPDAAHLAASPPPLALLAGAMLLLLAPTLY

## [Na+].[Na+].[Na+].[O]=[V]([O-])([O-])[O-] [Na3VO4, sodium orthovanadate]
[1]
  reversibility of inhibition: rapidly reversible
[2]; 0.025 μM DiFMUP, pH 6.5, 37 °C
  IC50: 1 ± 0.4 µM
[2]; 0.050 μM DiFMUP, pH 6.5, 37 °C
  IC50: 1.5 ± 0.4 µM
[2]; 0.100 μM DiFMUP, pH 6.5, 37 °C
  IC50: 1.6 ± 0.3 µM
[2]; 0.200 μM DiFMUP, pH 6.5, 37 °C
  IC50: 2.3 ± 0.4 µM
[2]; 0.400 μM DiFMUP, pH 6.5, 37 °C
  IC50: 4 ± 0.4 µM
[2]; 0.800 μM DiFMUP, pH 6.5, 37 °C
  IC50: 6.1 ± 0.9 µM
[2]; 1.600 μM DiFMUP, pH 6.5, 37 °C
  IC50: 11 ± 3 µM
[2]; IC50 rises with DiFMUP concentration, apparent KM but not Vmax rises
  mode of inhibition: competitive
[2]; Na3VO4 0.084 μM
  apparent AP Vmax: 567 ± 18 RFU min^−1
[2]; Na3VO4 0.250 μM
  apparent AP Vmax: 561 ± 35 RFU min^−1
[2]; Na3VO4 0.760 μM
  apparent AP Vmax: 566 ± 24 RFU min^−1
[2]; Na3VO4 2.28 μM
  apparent AP Vmax: 546 ± 32 RFU min^−1
[2]; Na3VO4 6.68 μM
  apparent AP Vmax: 513 ± 53 RFU min^−1

## Tween 20
[3]
  increase in AP activity: up to 40%

## Triton X-100
[3]
  increase in AP activity: up to 40%

## C[S+](C)[O-] [DMSO]
[2]; DMSO concentrations up to 1.5%
  decrease in reaction velocity: less than 10%

## C[C@H](CCC(=O)NCCC[N+](C)(C)CCCS(=O)(=O)[O-])[C@H]1CC[C@H]2[C@@H]3[C@H](O)C[C@@H]4C[C@H](O)CC[C@]4(C)[C@H]3C[C@H](O)[C@]12C [CHAPS]
[3]
  increase in AP activity: up to 40%

## Cc1cc(=O)oc2c(F)c(OP(=O)(O)O)c(F)cc12 [DiFMUP, 6,8-difluoro-4-methylumbelliferyl phosphate]
[2]; pH 6.5, 37 °C
  Hill coefficient: 1
  kcat: 37 s⁻¹
  Km: 0.2 ± 0.04 µM
  Vmax: 32 ± 2 µmol/min/mg
[2]; pH 7.0, 37 °C
  Hill coefficient: 1
  kcat: 82 s⁻¹
  Km: 0.5 ± 0.04 µM
  Vmax: 71 ± 3 µmol/min/mg
[2]; pH 7.5, 37 °C
  Hill coefficient: 1
  kcat: 147 s⁻¹
  Km: 1.4 ± 0.2 µM
  Vmax: 126 ± 3 µmol/min/mg
[2]; pH 8.0, 37 °C
  Hill coefficient: 1
  kcat: 211 s⁻¹
  Km: 2.8 ± 0.1 µM
  Vmax: 181 ± 1 µmol/min/mg
